Data from patent US6368788B1 (priority 1987, dated 2002).

Experiments:
[1] = Chronic osteomyelitis; set-up: species or system human; settings: in vivo
Protocol: L-Glu-L-Trp was administered to 176 patients with chronic osteomyelitis of various etiology and bone localizations. The control group consisted of 88 patients receiving conventional treatment. L-Glu-L-Trp was administered im as a single daily dosage of 100 μg, or intranasally at a dose of 1 μg/kg daily, over a period of 10 days.

[2] = Frostbite; set-up: species or system human; settings: in vivo
Protocol: Seventeen patients with frostbite of the extremities were treated with L-Glu-L-Trp either im or intranasally. Eleven patients constituted a control group.

[3] = test system: Dengue virus; test: Hemorrhagic Dengue Fever Protocol A; type: in vivo, human
Protocol: L-Glu-L-Trp was administered to 21 patients with hemorrhagic Dengue Fever, and 28 patients receiving conventional therapy served as controls. L-Glu-L-Trp was administered im single daily doses of 100 μg on each of 5 consecutive days as an adjunct to ongoing conventional therapy. […] The investigators also observed that L-Glu-L-Trp treated patients experienced a reduction in muscle and bone pain. Immunological indices in peripheral blood were also normalized.
Forty nine patients (20-30 years of age; Kinh nationality) with diagnosed Dengue Fever were entered into the trial. The patients were referred to the 175th Military Hospital in Ho Chi Minh City at the time of an epidemic of Dengue fever in the South […] Republic of Vietnam. Diagnosis was based on the criteria recommended by the World Health Organization (1986) using medical histories, and clinical and laboratory data. Serological analyses were conducted at the Arbovirus Infectious Diseases Laboratory of the Pasteur Institute in Ho Chi Minh City. […] Dyspeptic toxicosis, i.e., nausea and vomiting were rarely encountered (15% and 11.7%, respectively). Joint and muscle pains were pronounced, most commonly involving the spinal joints in the lumbar region (96.6%), joints of the pelvic girdle (82.2%), the ulnar joints (53.4%), as well as, the muscles of the lumbar (69%) and abdominal regions (69%). Exanthema (40.7%) and lymphadenopathy (46.7%) were evident in certain patients. […] Leukocytes during peak episodes of disease were recorded to be 4.60±0.17×10^9/L, and the absolute number of lymphocytes varied widely from 0.95 to 4.29×10^9/L.
Group 1 received conventional maintenance therapy consisting of detoxifying preparations and methods, e.g., fluids, fever control agents and the like. Group 2 received combination therapy, i.e., maintenance therapy and L-Glu-L-Trp, but only during periods of acute disease activity. L-Glu-L-Trp was administered at a dosage of 500 μg. The efficacy of the respective treatment protocols was evaluated by recording the most frequently used clinical indicia of Dengue disease activity: namely, the clinical indicia recorded in TABLE 45.

[4] = test system: influenza; test: Influenza prophylaxis: incidence of acute respiratory diseases and influenza illness; type: in vivo, human
Protocol: A group of 452 persons were treated with daily dosages of 100 μg of L-Glu-L-Trp administered im on each of 5-10 consecutive days. A control group consisted of 250 untreated persons. The incidence of diagnosed respiratory diseases and influenza were recorded for both groups over the next four months.

[5] = Acute osteomyelitis / soft tissue inflammation in children (Protocol C); type: in vivo, human
Protocol: Seventeen hospitalized children (10 boys and 7 girls) were entered into this protocol: 6 with acute inflammatory diseases of soft tissues (abscesses, phlegmons), 4 with odotogenous osteomyelitis of the jaw, and 7 with hematogenous osteomyelitis of the flat and tubular bones. In 11 children, the course of the illness was acute and in 6 it was subacute and chronic.
L-Glu-L-Trp was administered in combination therapy with conventional antibiotic therapies. Where necessary, surgery was performed to drain infectious foci in the jaw or soft tissues, affected teeth were extracted, and for osteomyelitis a port was drilled for infusion of antibiotics. Physical examination and laboratory testing was conducted before administering L-Glu-L-Trp and 2-3 days after the treatment.
Laboratory tests were conducted to determine clinical chemistry and protein values prior to and after therapy (i.e., including the concentrations of bilirubin, creatinine, albumin, cholesterol, urea nitrogen, glucose, protein, chloride, potassium, phosphorus, calcium, sodium, alkaline phosphatase, α1-orosomucoid, α2-macroglobulin, prealbumin, ceruloplasmin, and transferrin). While urea nitrogen and cholesterol decreased slightly after therapy, these and all other changes observed after L-Glu-L-Trp treatment were not statistically significant.

[6] = Combination L-Glu-L-Trp Therapy (n = 21)
[7] = children, After L-Glu-L-Trp Therapy (2-3 days after treatment)

## L-Glu-L-Trp
[1]
  Clinical outcome: pronounced positive effect on clinical course
[2]
  Clinical outcome: Rapid healing and restoration of tissue integrity
[3]; [6]
  Duration of Symptom: Eye muscle pain: 6.6 ± 0.8 h
  Duration of Symptom: Fever, At day 2-4 of illness: 4.7 ± 0.2 h
  Duration of Symptom: Fever, At day 2-6 of illness: 5.2 ± 0.3 h
  Duration of Symptom: Headache: 8.1 ± 0.9 h
  Duration of Symptom: Hepatomegally: 11.3 ± 0.8 h
  Duration of Symptom: Insomnia: 7.1 ± 0.7 h
  Duration of Symptom: Joint pain: 7.4 ± 0.7 h
  Duration of Symptom: Loss of appetite: 7.5 ± 0.8 h
  Duration of Symptom: Lumbar pain: 8.7 ± 0.7 h
  Duration of Symptom: Skeletal muscle pain: 7.7 ± 1.1 h
  Duration of Symptom: Splenomegally: 9.6 ± 0.7 h
  Duration of Symptom: Waist/Pelvic girdle pain: 8.1 ± 0.8 h
  Duration of Symptom: Weakness: 9.3 ± 0.8 h
[3]; in vivo
  Clinical outcome: decrease in fever, reduction of toxic symptoms
[4]; L-Glu-L-Trp group
  Average term of hospitalization: 6.2 days
  Incidence of lingering and complicated cases for in-patients, %: 9.8%
  Need for hospitalization, %: 30.6%
  Number of cases of temporary disablement per 100 persons/month: 4.1
  Number of days of temporary disablement per 100 persons/month: 26.5
  Overall incidence of lingering and complicated cases, %: 3.9%
  Pneumonia rate/100 persons/month: 0.20
  Sickness rate per 100 persons/month: 9.8
[4]; in vivo
  Average term of hospitalization, Ratio Control/TX: 1.4
  Cases of temporary disablement, Ratio Control/TX: 1.7
  Days of temporary disablement, Ratio Control/TX: 2.2
  Incidence of lingering and complicated cases for in-patients, Ratio Control/TX: 2.7
  Need for hospitalization, Ratio Control/TX: 1.7
  Overall incidence of lingering and complicated cases, Ratio Control/TX: 3.5
  Pneumonia rate, Ratio Control/TX: 2.5
  Sickness rate, Ratio Control/TX: 3.1
[5]; [7]
  B-Lymphocytes: % of PBL: 15.1 ± 3.32 % of PBL
  B-Lymphocytes: No.: 0.41 ± 0.11 10^9/L
  C3: 0.72 ± 0.05 g/L
  IgA: 1.68 ± 0.18 g/L
  IgG: 14.4 ± 1.31 g/L
  IgM: 1.64 ± 0.26 g/L
  LMIR: % Con A: 49.7 ± 13.7 %
  LMIR: % PHA: 47.7 ± 11.2 %
  Leukocytes: 7.0 ± 0.4^† 10^9/L
  Lymphocytes: % of PBL: 43 ± 3.61 % of PBL
  Lymphocytes: No.: 3.15 ± 0.41 10^9/L
  Neutrophils: 3.4 ± 0.33 ×10^9/L
  Neutrophils: % PBL: 50 ± 4.8 % PBL
  Null-Lymphocytes: % of PBL: 18.7 ± 4.68 % of PBL
  Null-Lymphocytes: No.: 0.42 ± 0.11^† 10^9/L
  T-Lymphocytes: % of Lym: 66.2 ± 2.57 % of Lym
  T-Lymphocytes: No.: 1.7 ± 0.3 10^9/L
  T-helper (Etr-RFC): % of Lym: 57.3 ± 6.34 % of Lym
  T-helper (Etr-RFC): No.: 1.4 ± 0.24 10^9/L
  T-suppressor: % of Lym: 8.8 ± 5.4 % of Lym
  T-suppressor: No.: 0.3 ± 0.2 10^9/L
[5]; in vivo
  Wounds cleaned and granulated earlier than usual: 2 to 3 days
